# How the values were obtained:
# [1] = target: T1, adenosine A3 receptor (A3R) (Homo sapiens, UniProt P0DMS8); experiment: Inhibition of adenosine A3 receptor cAMP signaling pathway in CHO-K1/A3R cells (HTRF cAMP dynamic 2 kit); format: cell-based; details: Table 3; for IC50: CHO-K1/A3R cells, cAMP, 10 μM forskolin, 5 nM 2Cl-IB-MECA; for IC50 ratio (A3R/A2aR): selectivity A3R over A2aR
# T1 construct: expressed in transfected cells; host or cells: CHO-K1
# T1 sequence (P0DMS8 1-318): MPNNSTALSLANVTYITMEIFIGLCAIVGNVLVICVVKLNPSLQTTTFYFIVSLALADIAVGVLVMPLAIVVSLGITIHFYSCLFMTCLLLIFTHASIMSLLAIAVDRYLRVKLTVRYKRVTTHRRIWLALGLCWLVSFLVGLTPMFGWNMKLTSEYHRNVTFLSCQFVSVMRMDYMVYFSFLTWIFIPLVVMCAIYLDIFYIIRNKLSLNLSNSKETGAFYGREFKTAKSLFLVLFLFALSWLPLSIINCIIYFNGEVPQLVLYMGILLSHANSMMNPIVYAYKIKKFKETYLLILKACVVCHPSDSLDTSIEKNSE
# Summary of the method: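 CHO-K1 cells expressing A3R, in HBSS/HEPES/BSA with rolipram and adenosine deaminase, were preincubated 30 min with compound (0.1–100000 nM final). They were then stimulated 30 min with 10 μM forskolin plus 5 nM 2Cl-IB-MECA at room temperature. cAMP read by HTRF and IC50 calculated.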
# [2] = target: T2, adenosine A1 receptor (A1R) (Homo sapiens, UniProt P30542); experiment: Inhibition of adenosine A1 receptor cAMP signaling pathway in CHO-K1/A1R cells (HTRF cAMP dynamic 2 kit); format: cell-based; details: Table 2; for IC50: CHO-K1/A1R cells, cAMP, 10 μM forskolin, 10 nM CPA; for IC50 ratio (A1R/A2aR): selectivity A1R over A2aR
# T2 construct: expressed in transfected cells; host or cells: CHO-K1
# T2 sequence (P30542 1-326): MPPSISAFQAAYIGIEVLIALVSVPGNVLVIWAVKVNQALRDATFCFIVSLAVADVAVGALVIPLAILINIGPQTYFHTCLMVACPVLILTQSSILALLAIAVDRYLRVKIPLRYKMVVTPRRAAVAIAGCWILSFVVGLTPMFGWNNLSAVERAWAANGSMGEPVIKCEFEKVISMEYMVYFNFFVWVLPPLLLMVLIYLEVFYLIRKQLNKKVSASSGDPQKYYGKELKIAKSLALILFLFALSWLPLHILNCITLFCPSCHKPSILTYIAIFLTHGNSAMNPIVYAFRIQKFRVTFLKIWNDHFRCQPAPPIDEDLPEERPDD
# Summary of the method: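 CHO-K1 cells stably expressing A1R, in HBSS with 20 mM HEPES, 0.1% BSA, rolipram and adenosine deaminase, were pre-incubated 30 min at RT with compound (0.1–100000 nM final). Cells were then stimulated 30 min with 10 μM forskolin plus 10 nM CPA. Intracellular cAMP was read by HTRF after 1 h detection.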
IC50 [1] [nM],IC50 ratio (A3R/A2aR) [1],IC50 [2] [nM],IC50 ratio (A1R/A2aR) [2],SMILES
2060,>10^3,1120,>10^3,"Cc1ccc(-c2nc(N)nc3c(Cc4cccc(CO[C@H]5CCOC5)n4)cnn23)o1 [Example 1, (S)-4-(5-Methylfuran-2-yl)-8-((6-(((tetrahydrofuran-3-yl)oxy)methyl)pyridin-2-yl)methyl)pyrazolo[1,5-a][1,3,5]triazin-2-amine]"
2200,>10^3,2540,>10^3,"Cc1ccc(-c2nc(N)nc3c(Nc4cccc(CO[C@H]5CCOC5)n4)cnn23)o1 [Example 18, (S)-4-(5-Methylfuran-2-yl)-N^8-(6-(((tetrahydrofuran-3-yl)oxy)methyl)pyridin-2-yl)pyrazolo[1,5-a][1,3,5]triazine-2,8-diamine]"
4790,>10^3,2860,>10^3,"Cc1ccc(-c2nc(N)nc3c(Oc4cccc(CO[C@H]5CCOC5)n4)cnn23)o1 [Example 19, (S)-4-(5-Methylfuran-2-yl)-8-((6-(((tetrahydrofuran-3-yl)oxy)methyl)pyridin-2-yl)oxy)pyrazolo[1,5-a][1,3,5]triazin-2-amine]"

# From patent US20210032253A1, “PYRAZOLO[1,5-A][1,3,5]TRIAZINE-2-AMINE DERIVATIVE, PREPARATION METHOD THEREFOR AND MEDICAL USE THEREOF” (JIANGSU HENGRUI MEDICINE CO., LTD., priority 2018, published 2021)
